Data: patent publication US20250250230A1, “HETEROCYCLIC COMPOUND” (TAKEDA PHARMACEUTICAL COMPANY LIMITED, priority 2022, published 2025)

What follows are molecules tested against T1, human orexin type 2 receptor (Homo sapiens, UniProt O43614) (assay: Measurement of orexin type 2 receptor agonist activity (calcium fluorescence, Fluo-4 AM, FDSS)). Settings: test compound 3 μM; CHO cells expressing human OX2 receptor; DMSO = 0%, orexin A (human) = 100%.
T1 construct: expressed in transfected cells
T1 sequence (O43614 1-444): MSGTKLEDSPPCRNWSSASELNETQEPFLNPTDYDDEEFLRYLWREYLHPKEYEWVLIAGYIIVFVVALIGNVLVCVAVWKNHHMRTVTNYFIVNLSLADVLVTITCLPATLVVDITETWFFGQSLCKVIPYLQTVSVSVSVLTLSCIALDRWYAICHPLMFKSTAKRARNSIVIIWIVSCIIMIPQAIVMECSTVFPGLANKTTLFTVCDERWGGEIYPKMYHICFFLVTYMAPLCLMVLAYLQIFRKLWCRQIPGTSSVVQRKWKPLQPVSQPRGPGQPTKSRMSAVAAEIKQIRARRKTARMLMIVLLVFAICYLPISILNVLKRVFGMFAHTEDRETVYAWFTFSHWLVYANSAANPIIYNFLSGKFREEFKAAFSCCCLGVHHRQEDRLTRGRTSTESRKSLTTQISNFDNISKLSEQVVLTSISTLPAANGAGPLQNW
Format: cell-based
In short: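 CHO-K1 cells stably expressing human OX2R were loaded with Fluo-4 AM (30 min 37 °C, 30 min RT) in HEPES-buffered HBSS with 0.1% BSA and probenecid. Calcium fluorescence was followed on FDSS for 2 min after compound addition; activity normalised to DMSO (0%) and 10 nM orexin A (100%).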

Compound | OX2R agonist activity (3 μM, %)
CS(=O)(=O)NC1CCCN(C(=O)C2CC2c2ccccc2-c2cc(F)ccc2F)C1 (racemic) [Example 65, a mixture of rac-N-{(3R)-1-[(1R,2R)-2-(2′,5′-difluoro[1,1′-biphenyl]-2-yl)cyclopropane-1-carbonyl]piperidin-3-yl}methanesulfonamide and rac-N-{(3S)-1-[(1R,2R)-2-(2′,5′-difluoro[1,1′-biphenyl]-2-yl)cyclopropane-1-carbonyl]piperidin-3-yl}methanesulfonamide] | 83%
CS(=O)(=O)NC[C@@H]1CCN1C(=O)C1(CO)CC1c1ccc(F)cc1-c1c(F)cccc1F (stereo partly drawn) [Example 434, N-({(2S)-1-[(1R,2S)-1-(hydroxymethyl)-2-(2′,5,6′-trifluoro[1,1′-biphenyl]-2-yl)cyclopropane-1-carbonyl]azetidin-2-yl}methyl)methanesulfonamide, or N-({(2S)-1-[(1S,2R)-1-(hydroxymethyl)-2-(2′,5,6′-trifluoro[1,1′-biphenyl]-2-yl)cyclopropane-1-carbonyl]azetidin-2-yl}methyl)methanesulfonamide] | 96%
CS(=O)(=O)NC1C2CN(C(=O)[C@@H]3C[C@@]3(F)c3ccccc3-c3c(F)cccc3F)CC2CC1(F)F (stereo partly drawn) [Example 377, N-{(3aR,4S,6aS)-2-[(1S,2S)-2-(2′,6′-difluoro[1,1′-biphenyl]-2-yl)-2-fluorocyclopropane-1-carbonyl]-5,5-difluorooctahydrocyclopenta[c]pyrrol-4-yl}methanesulfonamide, or N-{(3aS,4R,6aR)-2-[(1S,2S)-2-(2′,6′-difluoro[1,1′-biphenyl]-2-yl)-2-fluorocyclopropane-1-carbonyl]-5,5-difluorooctahydrocyclopenta[c]pyrrol-4-yl}methanesulfonamide] | 93%
CS(=O)(=O)N[C@H]1CCCN(C(=O)C2C(c3ccccc3-c3c(F)cccc3F)C2(F)F)C1 (stereo partly drawn) [Example 330, N-{(3S)-1-[(1R,3R)-3-(2′,6′-difluoro[1,1′-biphenyl]-2-yl)-2,2-difluorocyclopropane-1-carbonyl]piperidin-3-yl}methanesulfonamide, or N-{(3S)-1-[(1S,3S)-3-(2′,6′-difluoro[1,1′-biphenyl]-2-yl)-2,2-difluorocyclopropane-1-carbonyl]piperidin-3-yl}methanesulfonamide] | 91%
CCS(=O)(=O)NC[C@@H]1[C@H](O)CN1C(=O)[C@@H]1C[C@@]1(F)c1ccccc1-c1c(F)cccc1F [Example 374, N-({(2R,3R)-1-[(1S,2S)-2-(2′,6′-difluoro[1,1′-biphenyl]-2-yl)-2-fluorocyclopropane-1-carbonyl]-3-hydroxyazetidin-2-yl}methyl)ethanesulfonamide] | 98%
CS(=O)(=O)NC1CCN(C(=O)C2CC2c2sccc2-c2c(F)cccc2F)C1 (racemic) [Example 235, a mixture of rac-N-[(3R)-1-{(1R,2R)-2-[3-(2,6-difluorophenyl)thiophen-2-yl]cyclopropane-1-carbonyl}pyrrolidin-3-yl]methanesulfonamide and rac-N-[(3S)-1-{(1R,2R)-2-[3-(2,6-difluorophenyl)thiophen-2-yl]cyclopropane-1-carbonyl}pyrrolidin-3-yl]methanesulfonamide] | 89%
C[C@H]1C[C@H](NS(C)(=O)=O)CN1C(=O)[C@@H]1C[C@H]1c1ccccc1-c1c(F)cccc1F [Example 262, N-{(3S,5S)-1-[(1R,2R)-2-(2′,6′-difluoro[1,1′-biphenyl]-2-yl)cyclopropane-1-carbonyl]-5-methylpyrrolidin-3-yl}methanesulfonamide] | 109%
CCS(=O)(=O)NC(C)[C@@H]1CCN1C(=O)[C@@H]1C[C@@]1(F)c1ccccc1-c1c(F)cccc1F (stereo partly drawn) [Example 363, N-[(1R)-1-{(2S)-1-[(1S,2S)-2-(2′,6′-difluoro[1,1′-biphenyl]-2-yl)-2-fluorocyclopropane-1-carbonyl]azetidin-2-yl}ethyl]ethanesulfonamide, or N-[(1S)-1-{(2S)-1-[(1S,2S)-2-(2′,6′-difluoro[1,1′-biphenyl]-2-yl)-2-fluorocyclopropane-1-carbonyl]azetidin-2-yl}ethyl]ethanesulfonamide] | 98%
CS(=O)(=O)N[C@H]1CCN(C(=O)C2CC2c2cccc(F)c2-c2c(F)cccc2F)C1 (mixture of isomers) [Example 192, a mixture of N-{(3S)-1-[(1R,2R)-2-(2′,6,6′-trifluoro[1,1′-biphenyl]-2-yl)cyclopropane-1-carbonyl]pyrrolidin-3-yl}methanesulfonamide and N-{(3S)-1-[(1S,2S)-2-(2′,6,6′-trifluoro[1,1′-biphenyl]-2-yl)cyclopropane-1-carbonyl]pyrrolidin-3-yl}methanesulfonamide] | 95%
Cc1cc(-c2c(F)cccc2F)c(C2CC2C(=O)N2CCCC(NS(C)(=O)=O)CC2)cn1 (racemic) [Example 266, a mixture of rac-N-[(4R)-1-{(1R,2R)-2-[4-(2,6-difluorophenyl)-6-methylpyridin-3-yl]cyclopropane-1-carbonyl}azepan-4-yl]methanesulfonamide and rac-N-[(4S)-1-{(1R,2R)-2-[4-(2,6-difluorophenyl)-6-methylpyridin-3-yl]cyclopropane-1-carbonyl}azepan-4-yl]methanesulfonamide] | 87%
CS(=O)(=O)NC1CCCN(C(=O)C2CC2c2ccccc2-c2ccccc2Cl)C1 (racemic) [Example 74, a mixture of rac-N-{(3R)-1-[(1R,2R)-2-(2′-chloro[1,1′-biphenyl]-2-yl)cyclopropane-1-carbonyl]piperidin-3-yl}methanesulfonamide and rac-N-{(3S)-1-[(1R,2R)-2-(2′-chloro[1,1′-biphenyl]-2-yl)cyclopropane-1-carbonyl]piperidin-3-yl}methanesulfonamide] | 84%
CCS(=O)(=O)NC1COCCN(C(=O)[C@@H]2C[C@H]2c2ccccc2-c2c(F)cccc2F)C1 (stereo partly drawn) [Example 294, N-{(6S)-4-[(1R,2R)-2-(2′,6′-difluoro [1,1′-biphenyl]-2-yl)cyclopropane-1-carbonyl]-1,4-oxazepan-6-yl}ethanesulfonamide, or N-{(6R)-4-[(1R,2R)-2-(2′,6′-difluoro[1,1′-biphenyl]-2-yl)cyclopropane-1-carbonyl]-1,4-oxazepan-6-yl}ethanesulfonamide] | 104%
CS(=O)(=O)N[C@H]1CCCN(C(=O)C2(F)CC2c2ccccc2-c2c(F)cccc2F)C1 (stereo partly drawn) [Example 325, N-{(3S)-1-[(1R,2R)-2-(2′,6′-difluoro[1,1′-biphenyl]-2-yl)-1-fluorocyclopropane-1-carbonyl]piperidin-3-yl}methanesulfonamide, or N-{(3S)-1-[(1S,2S)-2-(2′,6′-difluoro[1,1′-biphenyl]-2-yl)-1-fluorocyclopropane-1-carbonyl]piperidin-3-yl}methanesulfonamide] | 96%
CS(=O)(=O)NC1CCC2CN(C(=O)C3CC3c3ccccc3-c3c(F)cccc3F)CC21 (stereo not drawn) [Example 238, N-2-[(2-(2′,6′-difluoro[1,1′-biphenyl]-2-yl)cyclopropane-1-carbonyl]octahydrocyclopenta[c]pyrrol-4-yl}methanesulfonamide Optical Isomer] | 98%
CS(=O)(=O)NC[C@@H]1CCN1C(=O)[C@@H]1C[C@@]1(F)c1ccccc1-c1c(F)cccc1F [Example 352, N-({(2S)-1-[(1S,2S)-2-(2′,6′-difluoro[1,1′-biphenyl]-2-yl)-2-fluorocyclopropane-1-carbonyl]azetidin-2-yl}methyl)methanesulfonamide] | 96%
CCS(=O)(=O)NC12CC1CN(C(=O)C1CC1c1ccccc1-c1c(F)cccc1F)C2 (racemic) [Example 237, a mixture of rac-N-{(1S,5R)-3-[(1R,2R)-2-(2′,6′-difluoro[1,1′-biphenyl]-2-yl)cyclopropane-1-carbonyl]-3-azabicyclo[3.1.0]hexan-1-yl}ethanesulfonamide and rac-N-{(1R,5S)-3-[(1R,2R)-2-(2′,6′-difluoro[1,1′-biphenyl]-2-yl)cyclopropane-1-carbonyl]-3-azabicyclo[3.1.0]hexan-1-yl}ethanesulfonamide] | 99%
CO[C@H]1C[C@H](NS(C)(=O)=O)CN(C(=O)[C@@H]2C[C@H]2c2ccccc2-c2c(F)cccc2F)C1 [Example 349, N-{(3S,5S)-1-[(1R,2R)-2-(2′,6′-difluoro[1,1′-biphenyl]-2-yl)cyclopropane-1-carbonyl]-5-methoxypiperidin-3-yl}methanesulfonamide] | 97%
CC1C(C(=O)N2CC[C@H](NS(C)(=O)=O)C2)C1c1ccccc1-c1c(F)cccc1F (mixture of isomers) [Example 303, a mixture of N-{(3S)-1-[(1R,2R,3S)-2-(2′,6′-difluoro[1,1′-biphenyl]-2-yl)-3-methylcyclopropane-1-carbonyl]pyrrolidin-3-yl}methanesulfonamide and N-{(3S)-1-[(1S,2S,3R)-2-(2′,6′-difluoro[1,1′-biphenyl]-2-yl)-3-methylcyclopropane-1-carbonyl]pyrrolidin-3-yl}methanesulfonamide] | 99%
